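These data come from cells grown in 96-well plates and exposed to compound for 48 hours at five concentrations. GI50 is the concentration that inhibits growth by half.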 Active and inactive are the calls of the source. Cut-off read from the data, not from the text of the source: active = GI50 up to about 1.1 µM and inactive = higher.
Columns and labels:
Test in all cases: NCI-60 cell line screen, 48 h
[1] = test system: CAKI-1
[2] = test system: HCT-116
[3] = test system: HOP-92
[4] = test system: IGROV-1
[5] = test system: MOLT-4
[6] = test system: NCI-H226
[7] = test system: NCI-H23
[8] = test system: RXF 393
[9] = test system: SF-268
[10] = test system: SF-295
[11] = test system: SF-539
[12] = test system: SK-MEL-5
[13] = test system: SK-OV-3
[14] = test system: SR
[15] = test system: TK-10
[16] = test system: U-251
[17] = test system: OVCAR-5

Measured: GI50

COc1ccc(C(=O)CC(=O)C(=O)Nc2ccc(C)c(C)c2)cc1
inactive: [1] > 100 µM | [2] 43.8 µM | [3] > 51.3 µM | [4] > 93.3 µM | [5] > 53.2 µM | [6] > 100 µM | [7] > 100 µM | [8] > 54.5 µM | [9] 56.2 µM | [10] > 100 µM | [11] > 100 µM | [12] 97.9 µM | [13] > 100 µM | [14] > 100 µM | [15] > 100 µM | [16] 63.4 µM

O=C(c1ccccc1)c1nnn(Cc2ccccc2Cn2nnc(C(=O)c3ccccc3)c2C(=O)c2ccccc2)c1C(=O)c1ccccc1
inactive: [1] > 100 µM | [2] > 100 µM | [3] > 100 µM | [4] 94.4 µM | [5] > 100 µM | [6] 47.4 µM | [7] > 100 µM | [17] > 100 µM | [9] > 100 µM | [10] > 100 µM | [11] > 100 µM | [12] > 100 µM | [13] > 100 µM | [14] > 100 µM | [15] > 100 µM | [16] > 100 µM

c1ccc(-c2nnc(-c3nn(-c4ccccc4)c4nc5ccccc5nc34)o2)cc1
inactive: [1] > 100 µM | [2] 34.8 µM | [4] > 100 µM | [5] 21.5 µM | [6] 18.2 µM | [7] 41.2 µM | [17] > 100 µM | [8] 4.3 µM | [9] > 100 µM | [10] > 100 µM | [11] 68.4 µM | [13] > 100 µM | [15] > 100 µM | [16] 85.1 µM

CCc1ccccc1NC(=O)C1=C(C)NC(C)=C(C(=O)Nc2ccccc2CC)C1c1ccc(NC(C)=O)cc1
inactive: [1] 43.1 µM | [2] 35.2 µM | [3] 25.8 µM | [4] 28.4 µM | [5] 15.3 µM | [6] 29.4 µM | [7] 42.7 µM | [17] > 100 µM | [8] 17.4 µM | [9] 38.1 µM | [10] 54.7 µM | [11] 25.9 µM | [12] 38.1 µM | [13] > 100 µM | [15] > 100 µM | [16] 53.6 µM

OCC1C(/C=C/c2ccoc2)ON2CCCC12 (stereo not given)
inactive: [1] > 100 µM | [6] > 100 µM | [7] > 100 µM | [17] > 100 µM | [8] > 100 µM | [9] > 100 µM | [10] > 100 µM | [11] > 100 µM | [15] > 100 µM | [16] > 100 µM

C[Si](C)(C)C#C[I+]c1ccccc1
inactive: [1] 42.8 µM | [2] 27.5 µM | [3] 40.5 µM | [4] 92 µM | [5] 29.4 µM | [6] > 100 µM | [7] 36.8 µM | [17] > 100 µM | [8] 47.4 µM | [9] 45.9 µM | [10] > 100 µM | [11] 28.9 µM | [12] 45.9 µM | [13] > 100 µM | [15] > 100 µM | [16] 38 µM

CCN(CC)CCCn1cnc2ncccc2c1=O
inactive: [1] > 100 µM | [2] > 100 µM | [3] > 100 µM | [4] > 100 µM | [6] > 100 µM | [7] > 100 µM | [17] > 100 µM | [8] > 100 µM | [9] > 100 µM | [10] > 100 µM | [11] > 100 µM | [12] > 100 µM | [13] > 100 µM | [14] > 100 µM | [15] > 100 µM | [16] > 100 µM

C/C(=N/OCCC(=O)O)C1CC1
inactive: [1] > 100 µM | [2] > 100 µM | [3] > 100 µM | [4] > 100 µM | [6] > 100 µM | [7] > 100 µM | [8] > 100 µM | [9] > 100 µM | [10] > 100 µM | [11] > 100 µM | [12] > 100 µM | [13] > 100 µM | [14] 90.4 µM | [15] > 100 µM | [16] > 100 µM

Cc1ccc(-c2cc(=S)n(-c3ccccc3)c3[nH]c(=S)n(-c4ccccc4)c(=N)c23)cc1
inactive: [1] > 100 µM | [2] > 100 µM | [3] > 100 µM | [4] > 100 µM | [5] > 100 µM | [6] > 100 µM | [7] > 100 µM | [17] > 100 µM | [9] > 100 µM | [10] > 100 µM | [11] > 100 µM | [12] > 100 µM | [14] > 100 µM | [15] > 100 µM | [16] > 100 µM

COc1ccc(OC(C)C(=O)O)c2c1CCCC2=O (stereo not given)
inactive: [2] > 100 µM | [4] > 100 µM | [5] > 100 µM | [6] > 100 µM | [7] > 100 µM | [17] > 100 µM | [8] > 100 µM | [9] > 100 µM | [10] > 100 µM | [11] > 100 µM | [12] > 100 µM | [13] > 100 µM | [14] > 100 µM | [15] > 100 µM | [16] > 100 µM

O/N=C1/C(=C/c2ccc(Cl)cc2)CCCC1C(NO)c1ccc(Cl)cc1 (stereo not given)
inactive: [1] 23.7 µM | [2] 23.9 µM | [4] 38.2 µM | [5] 14.7 µM | [7] 20 µM | [8] 12 µM | [9] 15.9 µM | [10] 18.9 µM | [11] 25.2 µM | [12] 22.7 µM | [13] 50.8 µM | [15] 31.7 µM | [16] 20.7 µM

COc1ccc(/C=C/C(=O)c2c(-c3ccccc3)nn(C)c(=O)c2N2CCOCC2)cc1
inactive: [1] > 100 µM | [2] 54.2 µM | [3] 6.92 µM | [4] > 100 µM | [5] 43.5 µM | [7] > 100 µM | [8] > 100 µM | [9] > 100 µM | [10] > 100 µM | [11] > 100 µM | [12] 97.9 µM | [13] > 100 µM | [15] > 100 µM | [16] > 100 µM

COc1ccc2c(c1)[n+]([O-])c(-c1ccccc1Cl)c(N)[n+]2[O-]
inactive: [1] > 100 µM | [2] > 100 µM | [3] > 100 µM | [4] 79.1 µM | [5] 96.8 µM | [6] > 100 µM | [7] 37.2 µM | [17] > 100 µM | [9] 74.3 µM | [10] > 100 µM | [11] > 100 µM | [12] 39.8 µM | [13] > 100 µM | [14] > 100 µM | [16] 69.2 µM

O=[N+]([O-])c1cccc(C2N3CCCCC3[C@@H]3c4[nH]c5ccccc5c4CCN23)c1 (stereo not given in full)
inactive: [1] 28.4 µM | [3] 16 µM | [4] 14.9 µM | [5] 5.85 µM | [7] 12.4 µM | [17] 16.9 µM | [8] 5.86 µM | [9] 12 µM | [10] 15.1 µM | [11] 14.8 µM | [12] 14.2 µM | [13] 17.8 µM | [15] 14.4 µM | [16] 14.1 µM

COc1cc(/C=C2\C(=O)N(C(=O)c3ccc(NC(C)=O)cc3)N=C2C)ccc1O
inactive: [1] > 100 µM | [2] > 100 µM | [5] > 100 µM | [6] > 100 µM | [7] > 100 µM | [17] > 100 µM | [9] > 100 µM | [10] > 100 µM | [11] > 100 µM | [12] > 100 µM | [14] > 100 µM | [15] > 100 µM

COC1C(OC(=S)Nc2ccccc2)c2ccccc2N1C(C)=O (stereo not given)
inactive: [1] 85.1 µM | [2] > 100 µM | [3] 13.7 µM | [4] 80.4 µM | [5] 44 µM | [7] > 100 µM | [8] 26.5 µM | [10] 28.4 µM | [11] > 100 µM | [14] 48.6 µM | [16] > 100 µM

Cc1cccc(C)c1NC(=O)C1C(=O)N(c2c(C)cccc2C)C(=O)/C1=N\NC(N)=S (stereo not given)
inactive: [2] 58.2 µM | [3] > 100 µM | [4] > 100 µM | [5] 75.3 µM | [7] > 100 µM | [17] > 100 µM | [8] 10.4 µM | [9] > 100 µM | [10] > 100 µM | [11] > 100 µM | [12] > 100 µM | [15] > 100 µM | [16] > 100 µM

COc1cc(/C=C/C(=O)c2cccc3ccccc23)cc(OC)c1OC
inactive: [1] 7.5 µM | [2] 3.82 µM | [4] 15.4 µM | [5] 3.44 µM | [6] 15.3 µM | [7] 5.32 µM | [17] 14.2 µM | [8] 2.33 µM | [9] 4.74 µM | [10] 10.1 µM | [12] 10.4 µM | [13] 15.2 µM | [14] 3.13 µM | [15] 14.2 µM | [16] 6.41 µM

CN(C)/C(=N/C(=S)Nc1ccccc1)SCc1ccccc1
inactive: [1] 24.2 µM | [4] 74.3 µM | [5] 32.5 µM | [6] 36.1 µM | [7] 40.9 µM | [17] > 100 µM | [8] 27.7 µM | [9] 48.3 µM | [10] 42.9 µM | [11] > 100 µM | [12] 3.14 µM | [13] > 100 µM | [15] > 100 µM | [16] 49.2 µM
